Data published in patent US20090192227A1, “N-Acetylcysteine Compositions and Methods for Treating Acute Exacerbations of Inflammatory Lung Disease” (priority 2005, published 2009).
Entries after “also recorded” stand apart in the source; their conditions may differ.

Key:
[1] = tested on: sputum leukocytes and neutrophils; experiment: Phase I trial: sputum counts of live leukocytes and neutrophils by microscopy; format: in vivo, human; details: 4 weeks
From the text: (§1) With regards to efficacy, very significant positive effects of the treatment were documented. These positive effects (Table 2) included amelioration of: 1—Whole blood GSH (+11%, P=0.03), as measured by HPLC and blood neutrophil GSH (+17%, P=0.03), as measured by flow cytometry; 2—Live sputum leukocyte (−21%, P=0.03) and neutrophil (−25%, P=0.02) counts, as measured by microscopy and sputum elastase activity (−44%, P=0.02), as measured by kinetic spectrophotometry; and 3—Perceived weight gain (P=0.01), as measured by the CF QOL
(§2) 2. Lung inflammation, as reflected chiefly by (i) sputum counts in total live leukocytes and neutrophils (along with % neutrophils in sputum); (iii) plasma/sputum levels of elastase and interleukin-8 (IL-8) measured by spectrophotometry and ELISA
(§3) Differences between basal and post-NAC values were studied by matched pair analysis, first, without distinguishing dose cohorts, to detect drug effects, and second, with dose cohorts as a factor, in order to detect potential dose effects.

[2] = tested on: elastase; experiment: Phase I trial: sputum elastase activity by kinetic spectrophotometry; format: in vivo, human; details: 4 weeks
From the text: as §1, §2, §3

[3] = tested on: interleukin-8 (IL-8); experiment: Phase I trial: sputum interleukin-8 (IL-8) by ELISA; format: in vivo, human; details: 3 patients excluded (N = 15), 4 weeks
From the text: 2. Lung inflammation, as reflected chiefly by (i) sputum counts in total live leukocytes and neutrophils (along with % neutrophils in sputum); (iii) plasma/sputum levels of elastase and interleukin-8 (IL-8) measured by spectrophotometry and ELISA Differences between basal and post-NAC values were studied by matched pair analysis, first, without distinguishing dose cohorts, to detect drug effects, and second, with dose cohorts as a factor, in order to detect potential dose effects.

[4] = Phase I trial: perceived weight gain by CF QOL questionnaire; format: in vivo, human; details: 4 weeks
From the text: as §1
Any sizeable change in lung function will likely require longer treatment and larger group size, which we look forward to implementing in the placebo-controlled phase of the study.

[5] = Phase I trial: lung function by spirometry; format: in vivo, human; details: short-term treatment (4 weeks)
From the text: 3. Lung function, as measured by spirometry. Differences between basal and post-NAC values were studied by matched pair analysis, first, without distinguishing dose cohorts, to detect drug effects, and second, with dose cohorts as a factor, in order to detect potential dose effects. […] Any sizeable change in lung function will likely require longer treatment and larger group size, which we look forward to implementing in the placebo-controlled phase of the study.

[6] = tested on: blood neutrophils; experiment: Phase I trial: absolute numbers of neutrophils in blood; format: in vivo, human; details: dose cohort 2 (2.4 g/d), 4 weeks
From the text: Indeed, cohort 2 was more severely affected with regards to several surrogate markers of disease prior to treatment (lower FEV1, all infected with P. aeruginosa, lower perceived weight gain).

[7] = Phase 2 placebo-controlled CF trial: safety, adverse events, adherence, CF QOL; format: in vivo, human
From the text: Summary. […] This single-center trial consisted of a 12-week placebo-controlled section followed by a 12-week open label section, with oral NAC 0.9 g, taken three times daily. The statistical plan for the study was designed to assess the safety and efficacy of NAC versus placebo, at 0 week and 12-week timepoints (placebo-controlled section).
Serious adverse events and adverse events. […] As used herein, the term “DIOS”, which stands for “Distal Intestinal Obstruction Syndrome” refers to a condition unique to CF that occurs due to the accumulation of viscous mucous and fecal material in the terminal ileum, caecum and ascending colon, which may cause progressive symptoms of recurrent colicky abdominal pain, bloating, nausea and anorexia, and signs of small intestinal obstruction.

[8] = tested on: sputum neutrophils; experiment: Phase 2 trial: sputum neutrophil count (live neutrophils by microscopy); format: in vivo, human
From the text: (§4) Summary. Based on the success of the phase I trial, the trial proceeded to phase II. This single-center trial consisted of a 12-week placebo-controlled section followed by a 12-week open label section, with oral NAC 0.9 g, taken three times daily. The statistical plan for the study was designed to assess the safety and efficacy of NAC versus placebo, at 0 week and 12-week timepoints (placebo-controlled section). Of the 24 subjects screened for eligibility, 21 were enrolled and randomized into NAC and placebo groups. One subject asked to be withdrawn from the prior to the 6 week time point because the medication regimen was too onerous. […] Two other subjects also were removed from participation in the study by the principal investigator due to poor adherence to the study protocol. […] Thus, 18 subjects are included in this intent-to-treat (ITT) analysis (9 on NAC and 9 on placebo).
(§5) Intention-to-treat analysis of efficacy endpoints. Besides the necessary assessment of the safety of high-dose oral NAC in a placebo-controlled setting, this phase 2 trial also was designed to gain a better understanding of treatment efficacy with regards to improving inflammation, redox imbalance and lung function in CF, albeit within the limits inherent to a small study. In particular, the study looked to confirm the positive effects of high-dose oral NAC seen on sputum neutrophil count and HNE activity obtained in phase 1. The primary efficacy endpoint in this phase 2 study is sputum neutrophil count (based on the quantification of live neutrophils by microscopy, reflecting lung inflammation) and the four secondary efficacy endpoints are: (i) FEV1 (% Pred), reflecting lung function; (ii) blood neutrophil GSH, reflecting systemic redox imbalance; (iii) sputum HNE activity, reflecting lung inflammation, the current best predictor of CF lung disease; and (iv) whole blood GSH, reflecting systemic redox imbalance. […]

[9] = Phase 2 trial: FEV1 (% Pred), lung function; format: in vivo, human
From the text: as §4
Intention-to-treat analysis of efficacy endpoints. Besides the necessary assessment of the safety of high-dose oral NAC in a placebo-controlled setting, this phase 2 trial also was designed to gain a better understanding of treatment efficacy with regards to improving inflammation, redox imbalance and lung function in CF, albeit within the limits inherent to a small study. In particular, the study looked to confirm the positive effects of high-dose oral NAC seen on sputum neutrophil count and HNE activity obtained in phase 1. The primary efficacy endpoint in this phase 2 study is sputum neutrophil count (based on the quantification of live neutrophils by microscopy, reflecting lung inflammation) and the four secondary efficacy endpoints are: (i) FEV1 (% Pred), reflecting lung function; (ii) blood neutrophil GSH, reflecting systemic redox imbalance; (iii) sputum HNE activity, reflecting lung inflammation, the current best predictor of CF lung disease; and (iv) whole blood GSH, reflecting systemic redox imbalance. Data on all other main efficacy endpoints (along with sputum HNE and IL-8 protein levels as additional indicators of inflammation) is presented in Table 3 (below) for all 9 subjects of the NAC group and 9 subjects in the placebo group included in the ITT analysis.

[10] = tested on: human neutrophil elastase (HNE); experiment: Phase 2 trial: sputum HNE enzymatic activity; format: in vivo
From the text: as §4
as §5, with “In particular, the study looked to confirm the positive effects of high-dose oral NAC seen on sputum neutrophil count and HNE activity obtained in phase 1.” left out
(§6) These various markers of inflammation were measured independently with different methodologies (e.g., microscopy, kinetic spectrophotometry, enzyme-linked immunosorbent assay), the results of which further strengthen the significance of these positive outcomes. […]

[11] = tested on: blood neutrophil GSH; experiment: Phase 2 trial: blood neutrophil intracellular GSH; format: in vivo, human; details: NAC group (n=9), ITT
From the text: Summary. Based on the success of the phase I trial, the trial proceeded to phase II. This single-center trial consisted of a 12-week placebo-controlled section followed by a 12-week open label section, with oral NAC 0.9 g, taken three times daily. The statistical plan for the study was designed to assess the safety and efficacy of NAC versus placebo, at 0 week and 12-week timepoints (placebo-controlled section). Of the 24 subjects screened for eligibility, 21 were enrolled and randomized into NAC and placebo groups. One subject asked to be withdrawn from the prior to the 6 week time point because the medication regimen was too onerous. […] Two other subjects also were removed from participation in the study by the principal investigator due to poor adherence to the study protocol. […]
Intention-to-treat analysis of efficacy endpoints. […] The primary efficacy endpoint in this phase 2 study is sputum neutrophil count (based on the quantification of live neutrophils by microscopy, reflecting lung inflammation) and the four secondary efficacy endpoints are: (i) FEV1 (% Pred), reflecting lung function; (ii) blood neutrophil GSH, reflecting systemic redox imbalance; (iii) sputum HNE activity, reflecting lung inflammation, the current best predictor of CF lung disease; and (iv) whole blood GSH, reflecting systemic redox imbalance. […]

[12] = tested on: human neutrophil elastase (HNE); experiment: Phase 2 trial: sputum HNE protein levels; format: in vivo
From the text: as §4
as §5, with “In particular, the study looked to confirm the positive effects of high-dose oral NAC seen on sputum neutrophil count and HNE activity obtained in phase 1.” left out
as §6

[13] = tested on: interleukin-8; experiment: Phase 2 trial: sputum IL-8 protein levels; format: in vivo, human
From the text: as §4
as §5, with “In particular, the study looked to confirm the positive effects of high-dose oral NAC seen on sputum neutrophil count and HNE activity obtained in phase 1.” left out
as §6

[14] = Phase 2 trial: exacerbations of sinus/lung disease, week 0 through week 12; format: in vivo, human; details: NAC group, placebo 7/9, P=0.04
From the text: as §4
During week 0 through week12, exacerbations of sinus/lung disease affected 9/18 subjects. Subjects were less prone to exacerbations in the NAC than in the placebo group (2/9 vs. 7/9, respectively, P=0.04, Fisher's exact test). […]

[15] = tested on: interleukin-17 (IL-17); experiment: Phase 2 trial: plasma levels of interleukin-17 (IL-17); format: in vivo, human; details: NAC group compared to placebo group, P=0.02
From the text: During week 0 through week12, exacerbations of sinus/lung disease affected 9/18 subjects. Subjects were less prone to exacerbations in the NAC than in the placebo group (2/9 vs. 7/9, respectively, P=0.04, Fisher's exact test). A key molecular correlate of exacerbations, namely plasma levels of the cytokine interleukin-17 (IL-17) also was decreased in the NAC group compared to the placebo-group (P=0.02), further confirming the anti-inflammatory effect of NAC in CF and corroborating its positive effect on acute attacks. IL-17 recently has been identified as a potent T-cell derived modulator of acute neutrophilic lung inflammation [Linden, A., et al. Neutrophils, interleukin-17A and lung disease. Eur. Respir. J. 25:159-172 (2008)]

[16] = more stable than cysteine; cited from earlier work
[17] = 600 mg oral NAC per day, at least two exacerbations per year for 2 years; cited from earlier work
[18] = systematic review of randomized controlled trials; cited from earlier work
[19] = 600 mg three times daily plus prednisone plus azothioprine, one year, vs standard therapy alone; cited from earlier work
[20] = administered intravenously in dogs; cited from earlier work
[21] = doses less than NAC; effects counter to those reported for NAC; cited from earlier work
[22] = All (N = 18), basal vs post-NAC
[23] = NAC group (n=9), ITT, oral 0.9 g three times daily, week 12
[24] = NAC group (n=9), ITT, week 0 baseline
[25] = phase 2, wk 0 vs wk 12, not in placebo group

CC(=O)N[C@@H](CS)C(=O)O [NAC, N-acetylcysteine]
Live sputum leukocytes, change ([1]; 3 patients excluded (N = 15)): −28% | Live sputum neutrophils, change ([1]; 3 patients excluded (N = 15)): −32% | Neutrophils sputum (%), change ([1]; 3 patients excluded (N = 15)): −9% | Live sputum leukocytes, change [1, 22]: −21% | Live sputum neutrophils, change [1, 22]: −25% | Elastase in sputum, change ([2]; 3 patients excluded (N = 15)): −46% | Elastase in sputum, change [2, 22]: −44% | IL-8 in sputum, change [3]: −25% | Perceived weight gain, change ([4]; 3 patients excluded (N = 15)): Increased | Perceived weight gain, change ([4]; All (N = 18), CF QOL): Increased | Pulmonary Function Testing results (spirometry) [5]: not changed; also recorded: none of the parameters measured by spirometry showed any change | Decrease in absolute numbers of neutrophils in blood [6]: 27% | Complete blood count and chemistry parameters ([7]; 12-week treatment, marginal changes in red blood cell distribution width and calcium, within normal range): not affected | Flatulence (CF QOL questionnaires) ([7]; NAC group, not in the placebo group, 12 weeks): significant reduction | Liver enzymes ([7]; phase 2, 12 weeks): No change | Tolerability ([7]; phase 2, oral 0.9 g three times daily, 12 weeks): very well tolerated; also recorded: lack of toxicity | Sputum neutrophil count (Log10), Value wk 12 [8, 23]: 1.24 ± 0.18 Log10 | Sputum neutrophil count (Log10), Value wk 0 [8, 24]: 1.41 ± 0.17 Log10 | Sputum neutrophil count, change within NAC group ([8]; phase 2, wk 0 vs wk 12, 0.9 g three times daily, not in placebo group): significant decreases; also recorded: significantly decreased | Decline in pulmonary function tests (PFTs) ([9]; ITT analysis over the course of the phase 2 trial): no significant decline | Functional expiratory volume in 1s (% Pred), Value wk 12 [9, 23]: 75.6 ± 8.2 % Pred | Functional expiratory volume in 1s (% Pred), Value wk 0 [9, 24]: 73.7 ± 7.6 % Pred | FEV1 (% Pred), effect ([9]; phase 2, 12 weeks): No significant effect; also recorded: failed to detect any significant improvement | Sputum HNE enzymatic activity (Log10), Value wk 12 [10, 23]: 3.16 ± 0.20 Log10 | Sputum HNE enzymatic activity (Log10), Value wk 0 [10, 24]: 3.61 ± 0.15 Log10 | Sputum HNE enzymatic activity, change within NAC group [10, 25]: significant decreases; also recorded: significantly decreased | Blood neutrophil intracellular GSH, Value wk 12 ([11]; oral 0.9 g three times daily, week 12): 4.10 ± 0.10 | Blood neutrophil intracellular GSH, Value wk 0 ([11]; week 0 baseline): 4.04 ± 0.08 | Sputum HNE protein levels (Log10), Value wk 12 [12, 23]: −0.27 ± 0.12 Log10 | Sputum HNE protein levels (Log10), Value wk 0 [12, 24]: 0.04 ± 0.13 Log10 | Sputum HNE protein levels, change within NAC group [12, 25]: significant decreases; also recorded: significantly decreased | Sputum IL-8 protein levels (Log10), Value wk 12 [13, 23]: 1.81 ± 0.18 Log10 | Sputum IL-8 protein levels (Log10), Value wk 0 [13, 24]: 2.01 ± 0.12 Log10 | Sputum IL-8 protein levels, change within NAC group [13, 25]: significant decreases; also recorded: significantly decreased | Subjects with exacerbations of sinus/lung disease [14]: 2/9 | Plasma levels of IL-17 [15]: decreased | Stability relative to cysteine [16]: about 10 times | Prevention of deterioration in lung function and exacerbations in COPD [17]: ineffective | Early mortality in ARDS and ALI [18]: no effect | Deterioration of vital capacity and DLCO in IPF [19]: slows the deterioration | Pulmonary oxygen toxicity and ischemic and reperfusion damage [20]: protect

CC(=O)N[C@@H](CSSC[C@H](NC(C)=O)C(=O)O)C(=O)O [oxidized form of NAC, di-N-acetylcysteine]
Bioactive dose relative to NAC [21]: 10-100 fold
